We go through 5 compounds from patent publication US8044056B2, “Adenine compound” (priority 2007, dated 2011).

Each structure is given as a SMILES string.

The target in this experiment is T1, Human TLR7 (Homo sapiens, UniProt Q9NYK1).
T1 construct: expressed in transfected cells; host or cells: HEK293 (hTLR7/seap-293)
T1 sequence (Q9NYK1 27-1049): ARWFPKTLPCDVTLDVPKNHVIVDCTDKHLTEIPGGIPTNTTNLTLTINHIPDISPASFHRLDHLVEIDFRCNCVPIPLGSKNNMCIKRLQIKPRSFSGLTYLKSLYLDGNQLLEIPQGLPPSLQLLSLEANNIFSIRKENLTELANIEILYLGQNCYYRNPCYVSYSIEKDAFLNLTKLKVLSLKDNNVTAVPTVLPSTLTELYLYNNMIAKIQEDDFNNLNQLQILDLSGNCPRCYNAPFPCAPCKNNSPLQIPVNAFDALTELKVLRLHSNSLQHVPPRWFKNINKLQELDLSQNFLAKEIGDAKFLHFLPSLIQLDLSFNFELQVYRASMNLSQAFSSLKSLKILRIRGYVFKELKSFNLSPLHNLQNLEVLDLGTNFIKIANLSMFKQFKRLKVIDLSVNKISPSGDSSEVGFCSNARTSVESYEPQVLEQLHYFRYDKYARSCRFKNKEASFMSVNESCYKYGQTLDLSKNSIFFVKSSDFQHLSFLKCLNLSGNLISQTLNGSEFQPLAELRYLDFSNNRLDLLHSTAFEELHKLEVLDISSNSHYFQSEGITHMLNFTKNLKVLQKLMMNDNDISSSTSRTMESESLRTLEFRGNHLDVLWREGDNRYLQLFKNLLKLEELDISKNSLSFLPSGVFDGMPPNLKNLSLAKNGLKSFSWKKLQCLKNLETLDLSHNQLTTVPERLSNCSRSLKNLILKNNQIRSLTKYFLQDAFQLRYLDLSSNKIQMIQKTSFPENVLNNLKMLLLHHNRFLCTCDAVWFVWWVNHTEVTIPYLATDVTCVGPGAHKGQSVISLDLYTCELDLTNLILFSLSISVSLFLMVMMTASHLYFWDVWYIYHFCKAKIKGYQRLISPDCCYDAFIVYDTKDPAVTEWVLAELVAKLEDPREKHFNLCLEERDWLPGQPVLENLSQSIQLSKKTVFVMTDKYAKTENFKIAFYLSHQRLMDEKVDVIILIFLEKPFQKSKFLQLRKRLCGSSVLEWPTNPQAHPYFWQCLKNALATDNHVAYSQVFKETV
The experiment is described as follows: Human TLR7 reporter assay (NF-kB-SEAP). Format: cell-based. The following applies: HEK293 cells stably carrying human TLR7 plasmid and NF-kB-SEAP reporter; 20 hours incubation; 1 nM-10 μM; absorbance 405 nm; read-out: Human TLR7 binding activity (pEC50) (converted). As to the method:
Human TLR7 or rat TLR7 plasmid and a reporter plasmid (NF-kB-SEAP) stably-induced HEK293 cells were suspended in DMEM media (10% FBS, 1% NEAA, 10 μg/mL blastocidin S HCl, 100 ug/mL Zeocin), and the suspension was seeded on a 96-well plate in an amount of 90 μl/well (hTLR7/seap-293: 20000 cells/well, rTLR7/seap-293: 25000 cells/well).
To the cells seeded on the 96-well plate was added a test compound wherein DMSO stock solution (2 μl) was hundredfold diluted with medium (200 μl) in an amount of 10 μl/well (final concentration; 1 nM-10 μM, common ratio 3). The mixture was stirred by tapping in the side of the plate, and then incubated for 20 hours in a CO2 incubator. To the cells stimulated by a test compound was added a substrate for reporter assay (substrate for SEAP, pNPP) in an amount of 50 μl/well. Ten minutes after the addition of the substrate, a quenching solution (4N NaOH) was added in an amount of 50 μl/well, and the enzymatic reaction was quenched. Top seal A was attached on the plate, and the absorbance was measured by microplate reader (405 nm).
In general terms: A reporter such as luciferase makes a cellular process visible.
Turning to `CCCCOc1nc(N)c2[nH]c(=O)n(CCCN3CCN(C/C=C/c4ccccc4)CC3)c2n1` [Example 4, 2-Butoxy-9-(3-[4-cinnamylpiperazin-1-yl]propyl)-7,8-dihydro-8-oxoadenine], the EC50 is 794 nM. Regarding `CCCCOc1nc(N)c2[nH]c(=O)n(CCCCCCCN3CCN(c4ccc(C(C)=O)cc4)CC3)c2n1` [Example 5, 9-(7-[4-(4-Acetylphenyl)piperazin-1-yl]heptyl-2-butoxy-7,8-dihydro)-8-oxoadenine], the EC50 is 158 nM. Then `CCCCOc1nc(N)c2[nH]c(=O)n(CCCCCCCN3CCN(c4ccncc4)CC3)c2n1` [Example 6, 2-Butoxy-7,8-dihydro-9-(7-[4-(4-pyridyl)piperazin-1-yl]heptyl)-8-oxoadenine], with 31.6 nM. As for `CCCCOc1nc(N)c2[nH]c(=O)n(CCCCCCCN3CCC(Oc4ccc(Cl)cc4C)CC3)c2n1` [Example 7, 2-Butoxy-9-(7-[4-(4-chloro-2-methylphenoxy)piperidin-1-yl]heptyl)-7,8-dihydro-8-oxoadenine], the EC50 was 631 nM. To `CCCCOc1nc(N)c2[nH]c(=O)n(CCCCCCCN3CCN(c4ccc(OC)cc4)CC3)c2n1` [Example 8, 2-Butoxy-7,8-dihydro-9-(7-[4-(4-methoxyphenyl)piperazin-1-yl]heptyl)-8-oxoadenine] belongs 251 nM.
